Reference: patent publication US11577010B2, “Hemostatic devices and methods of use” (priority 2017, dated 2023)

Experiments:
[1] = tested on: blood; assay: in vitro blood clotting time with different amounts of TXA in presence of TYRX (Example 17); assay type: biochemical; conditions: higher amounts of TXA (1.6 mg TXA vs 200 mg of TXA), in the presence of TYRX
Description: Tests were conducted to compare the time required to induce blood clotting in vitro when different amounts of hemostatic agent is administered in the presence of TYRX (degradable mesh coated with P22-27.5 containing rifampin and minocycline), as shown in FIG. 40. Clotting time was […] when higher amounts of TXA was present (1.6 mg TXA vs 200 mg of TXA), as shown below in FIG. 44.

[2] = tested on: blood; assay: in vitro time required to induce blood clotting (Example 18); assay type: biochemical; conditions: 1.2 mg of TXA alone
Description: Tests were conducted to compare the time required for different hemostatic agents to induce blood clotting in vitro versus the time required to induce blood clotting in vitro when no hemostatic agent is administered. In particular, the time required to induce blood clotting was plotted for blood alone, a polymer in the p22-xx family (P22-27.5-TYRX), Surgicel, a polymer in the p22-xx family (P22-27.5-TYRX) with 1.6 mg of TXA, 1.2 mg of TXA alone and a polymer in the p22-xx family (P22-27.5-TYRX) with X mg of TXA.
Tests were conducted to compare the time required for different hemostatic agents to induce blood clotting in vitro versus the time required to induce blood clotting in vitro when no hemostatic agent is administered. In particular, the time required to induce blood clotting was plotted for blood alone, TYRX, Surgicel, TYRX with 1.6 mg of TXA, 1.2 mg of TXA alone and TYRX with 200 mg of TXA. In this example, TYRX refers to a Glycoprene mesh that is coated with P22-27.5 (a polymer in the P22-X family) containing Rifampin and Minocycline.

[3] = given preoperatively; cited from earlier work
[4] = stability of rifampin and minocycline in PBS with and without tranexamic acid (Example 14); assay type: physicochemical; conditions: regardless of temperature (RT about 23° C. and 37° C.)
Description: The mixtures were tested both at room temperature (RT) (about 23° C.) and at 37° C.

[5] = in vitro elution of rifampin and minocycline from p22-27.5 polymers with TXA in release media (Example 15); assay type: physicochemical; conditions: PBS pH 7.4 without or with TXA 0.05 mg/mL or 5 mg/mL, over 25 hours
Description: B1=PBS pH 7.4; B2=PBS, pH 7.4+TXA (0.05 mg/mL); B3=PBS, pH 7.4+TXA (5 mg/mL).

[6] = tested on: myofibroblast formation; conditions: Ajmal et al. (2003) Plast. Reconstr. Surg. 112:1455-1461; cited from earlier work

NC[C@H]1CC[C@H](C(=O)O)CC1 [tranexamic acid]
Clotting time [1]: increased | time to induce blood clotting [2]: about 19 minutes | time to reach plasma concentrations [3]: 5 to 15 min

CO[C@H]1/C=C/O[C@@]2(C)Oc3c(C)c(O)c4c(O)c(c(/C=N/N5CCN(C)CC5)c(O)c4c3C2=O)NC(=O)/C(C)=C\C=C\[C@H](C)[C@H](O)[C@@H](C)[C@@H](O)[C@@H](C)[C@H](OC(C)=O)[C@@H]1C [rifampin]
percentage area of rifampin, mixtures with vs without tranexamic acid [4]: substantially the same | elution rates, effect of TXA in the release media [5]: not effected

O=S(=O)([O-])CCS.[Na+] [MESNA, sodium 2-mercaptoethane sulfonate]
myofibroblast formation [6]: diminish myofibroblast formation
